molecular target: T1, androgen receptor (AR) (Homo sapiens, UniProt P10275); test: Degradation of androgen receptor (AR) protein in VCaP cells by Western blot; type: cell-based; conditions: percentage of degraded AR at 100 nM, VCaP cells, 16 h
T1 sequence (P10275 1-920): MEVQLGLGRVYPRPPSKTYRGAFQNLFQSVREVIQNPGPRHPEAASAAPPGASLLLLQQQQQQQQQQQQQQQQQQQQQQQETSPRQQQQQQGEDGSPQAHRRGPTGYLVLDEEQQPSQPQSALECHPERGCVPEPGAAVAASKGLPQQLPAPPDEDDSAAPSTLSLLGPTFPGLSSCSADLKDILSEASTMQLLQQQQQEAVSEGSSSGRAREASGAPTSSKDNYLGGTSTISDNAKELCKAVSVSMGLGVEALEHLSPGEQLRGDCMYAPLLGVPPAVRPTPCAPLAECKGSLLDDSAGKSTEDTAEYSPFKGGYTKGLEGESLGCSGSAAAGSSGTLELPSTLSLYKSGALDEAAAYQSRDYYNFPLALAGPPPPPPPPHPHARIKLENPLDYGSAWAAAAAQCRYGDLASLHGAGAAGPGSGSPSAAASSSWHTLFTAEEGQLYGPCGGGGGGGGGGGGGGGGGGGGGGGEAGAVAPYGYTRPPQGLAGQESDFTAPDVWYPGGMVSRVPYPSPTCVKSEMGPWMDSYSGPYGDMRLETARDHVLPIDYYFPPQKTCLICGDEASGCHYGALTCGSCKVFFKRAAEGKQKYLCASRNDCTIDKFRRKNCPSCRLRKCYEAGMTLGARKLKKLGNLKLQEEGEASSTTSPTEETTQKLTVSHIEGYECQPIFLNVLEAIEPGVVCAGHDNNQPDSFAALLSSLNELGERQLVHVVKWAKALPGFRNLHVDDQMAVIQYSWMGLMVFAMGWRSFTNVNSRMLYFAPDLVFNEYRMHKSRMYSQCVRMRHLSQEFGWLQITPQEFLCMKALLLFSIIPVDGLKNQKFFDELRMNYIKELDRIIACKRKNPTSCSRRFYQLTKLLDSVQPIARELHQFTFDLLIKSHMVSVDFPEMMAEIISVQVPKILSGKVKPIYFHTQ
In short: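 VCaP cells (5×10^5/well) were seeded overnight, then treated in duplicate for 16 h with compound in 0.1% DMSO final. Lysates (30 μg protein) were immunoblotted for AR (D6F11) with β-actin as loading control, detected by ECL chemiluminescence.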

inhibition at 0.1 µM [%]	Compound	% degradation
> 80	N#Cc1ccc(O[C@H]2CC[C@H](NC(=O)c3ccc(N4CCC(CN5CCC6(CC5)CN(c5cc7c(cc5F)C(=O)N(C5CCC(=O)NC5=O)C7=O)C6)CC4)nn3)CC2)cc1Cl (some centres unmarked) [Compound 231, N-((1r,4r)-4-(3-chloro-4-cyanophenoxy)cyclohexyl)-6-(4-((2-(2-(2-,2,6-dioxopiperidin-3-yl)-6-fluoro-1,3-dioxoisoindolin-5-yl)-2,7-diazaspiro[3.5]nonan-7-yl)methyl)piperidin-1-yl)pyridazine-3-carboxamide]	–
> 80	N#Cc1ccc(O[C@H]2CC[C@H](NC(=O)c3ccc(N4CC5(CCN(CC6CCN(c7cc8c(cc7F)C(=O)N(C7CCC(=O)NC7=O)C8=O)CC6)CC5)C4)nn3)CC2)cc1Cl (some centres unmarked) [Compound 232]	–
25 to 49	N#Cc1ccc(O[C@H]2CC[C@H](NC(=O)c3ccc(N4CCC(CN5CC6CN(c7ccc8c(c7)C(=O)N(C7CCC(=O)NC7=O)C8=O)CC6C5)CC4)nn3)CC2)cc1Cl (some centres unmarked) [Compound 252, N-((1r,4r)-4-(3-chloro-4-cyanophenoxy)cyclohexyl)-6-(4-((5-(2-(2,6-dioxopiperidin-3-yl)-1,3-dioxoisoindolin-5-yl)Hexahydropyrrolo[3,4-c]pyrrol-2(11H)-yl)methyl)piperidin-1-yl)pyridazine-3-formamide]	–
50 to 79	N#Cc1ccc(O[C@H]2CC[C@H](NC(=O)c3ccc(N4CCC(CN5CC6CN(c7cc8c(cc7F)C(=O)N(C7CCC(=O)NC7=O)C8=O)CC6C5)CC4)nn3)CC2)cc1Cl (some centres unmarked) [Compound 253, N-((1r,4r)-4-(3-chloro-4-cyanophenoxy)cyclohexyl)-6-(4-((5-(2-(2,6-dioxopiperidin-3-yl)-6-fluoro-1,3-dioxoisoindolin-5-yl)Hexahydropyrrolo[3,4-c]pyrrol-2(1H)-yl)methyl)piperidin-1-yl)pyridazine-3-formamide]	–
50 to 79	N#Cc1ccc(O[C@H]2CC[C@H](NC(=O)c3cnc(N4CCC(CN5CC6CN(c7ccc8c(c7)C(=O)N(C7CCC(=O)NC7=O)C8=O)CC6C5)CC4)cn3)CC2)cc1Cl (some centres unmarked) [Compound 254, N-((1r,4r)-4-(3-chloro-4-cyanophenoxy)cyclohexyl)-5-(4-((5-(2-(2,6-dioxopiperidin-3-yl)-1,3-dioxoisoindolin-5-yl)Hexahydropyrrolo[3,4-c]pyrrol-2(11H)-yl)methyl)piperidin-1-yl)pyrazine-2-carboxamide]	–
50 to 79	N#Cc1ccc(O[C@H]2CC[C@H](NC(=O)c3cnc(N4CCC(CN5CC6CN(c7cc8c(cc7F)C(=O)N(C7CCC(=O)NC7=O)C8=O)CC6C5)CC4)cn3)CC2)cc1Cl (some centres unmarked) [Compound 255, N-((1r,4r)-4-(3-chloro-4-cyanophenoxy)cyclohexyl)-5-(4-((5-(2-(2,6-dioxopiperidin-3-yl)-6-fluoro-1,3-dioxoisoindolin-5-yl)Hexahydropyrrolo[3,4-c]pyrrol-2(1H)-yl)methyl)piperidin-1-yl)pyrazine-2-carboxamide]	–
25 to 49	N#Cc1ccc(O[C@H]2CC[C@H](NC(=O)c3cnc(N4CCC(CN5CC6CN(c7ccc8c(c7)C(=O)N(C7CCC(=O)NC7=O)C8=O)CC6C5)CC4)nc3)CC2)cc1Cl (some centres unmarked) [Compound 256, N-((1r,4r)-4-(3-chloro-4-cyanophenoxy)cyclohexyl)-2-(4-((5-(2-(2,6-dioxopiperidin-3-yl)-1,3-dioxoisoindolin-5-yl)Hexahydropyrrolo[3,4-c]pyrrol-2(11H)-yl)methyl)piperidin-1-yl)pyrimidine-5-carboxamide]	–
25 to 49	N#Cc1ccc(O[C@H]2CC[C@H](NC(=O)c3cnc(N4CCC(CN5CC6CN(c7cc8c(cc7F)C(=O)N(C7CCC(=O)NC7=O)C8=O)CC6C5)CC4)nc3)CC2)cc1Cl (some centres unmarked) [Compound 257, N-((1r,4r)-4-(3-chloro-4-cyanophenoxy)cyclohexyl)-2-(4-((5-(2-(2,6-dioxopiperidin-3-yl)-6-fluoro-1,3-dioxoisoindolin-5-yl)Hexahydropyrrolo[3,4-c]pyrrol-2(1H)-yl)methyl)piperidin-1-yl)pyrimidine-5-carboxamide]	–
> 80	N#Cc1ccc(O[C@H]2CC[C@H](NC(=O)c3ccc(N4CC5CN(CC6CCN(c7cc8c(cc7F)C(=O)N(C7CCC(=O)NC7=O)C8=O)CC6)CC5C4)nn3)CC2)cc1Cl (some centres unmarked) [Compound 259, N-((1r,4r)-4-(3-chloro-4-cyanophenoxy)cyclohexyl)-6-(5-((1-(2-(2,6-dioxopiperidin-3-yl)-6-fluoro-1,3-dioxoisoindolin-5-yl)piperidine-4-yl)methyl)hexahydropyrrolo[3,4-c]pyrrol-2(11H)-yl)pyridazine-3-carboxamide]	–
> 80	N#Cc1ccc(O[C@H]2CC[C@H](NC(=O)c3ccc(N4CC5CN(CC6CCN(c7ccc8c(c7)C(=O)N(C7CCC(=O)NC7=O)C8=O)CC6)CC5C4)nn3)CC2)cc1Cl (some centres unmarked) [Compound 260, N-((1r,4r)-4-(3-chloro-4-cyanophenoxy)cyclohexyl)-6-(5-((1-(2-(2,6-dioxopiperidin-3-yl)-1,3-dioxoisoindolin-5-yl)piperidine-4-yl)methyl)hexahydropyrrolo[3,4-c]pyrrol-2(1Ji)-yl)pyridazine-3-carboxamide]	–
> 80	N#Cc1ccc(O[C@H]2CC[C@H](NC(=O)c3cnc(N4CCC5(CC4)CN(C4CCN(c6cc7c(cc6F)C(=O)N(C6CCC(=O)NC6=O)C7=O)CC4)C5)cn3)CC2)cc1Cl (some centres unmarked) [Compound 289]	–
50 to 79	N#Cc1ccc(O[C@H]2CC[C@H](NC(=O)c3ccc(N4CCN(C(=O)O[C@H]5C[C@@H]6CN(c7cc8c(cc7F)C(=O)N(C7CCC(=O)NC7=O)C8=O)C[C@@H]6C5)CC4)nn3)CC2)cc1Cl (some centres unmarked) [Compound 290]	–
50 to 79	CC1(C)[C@H](NC(=O)c2ccc(N3CCC(NC4CCN(c5cc6c(cc5F)C(=O)N(C5CCC(=O)NC5=O)C6=O)CC4)CC3)nn2)C(C)(C)[C@H]1Oc1ccc(C#N)c(Cl)c1 (some centres unmarked) [Compound 291, N-((1r,3r)-3-(3-chloro-4-cyanophenoxy)-2,2,4,4-tetramethylcyclobutyl)-6-(4-((1-(2-(2,6-dioxopiperidin-3-yl)-6-fluoro-1,3-dioxoisoindoline)piperidine-4-yl)amino)piperidin-1-yl)pyridazine-3-formamide]	–
–	N#Cc1ccc(OC2CCC(NC(=O)c3ccc(N4C[C@H]5CC(N6CCN(c7cc8c(cc7F)C(=O)N(C7CCC(=O)NC7=O)C8=O)CC6)C[C@H]5C4)nn3)CC2)cc1Cl (stereo partly drawn) [Compound 292, N-((1s,4S)-4-(3-chloro-4-cyanophenoxy)cyclohexyl)-6-((3aR,5R,6aS)-5-(4-(2-(2,6-dioxopiperidin-3-yl)-6-fluoro-1,3-dioxoisoindolin-5-yl)piperazin-1-yl)hexahydrocyclopenta[c]pyrrole-2(1H)-yl)pyridazine-3-formamide]	D (<25%)
50 to 79	N#Cc1ccc(O[C@H]2CC[C@H](NC(=O)c3cnc(N4C[C@H]5C[C@@H](N6CCN(c7cc8c(cc7F)C(=O)N(C7CCC(=O)NC7=O)C8=O)CC6)C[C@H]5C4)cn3)CC2)cc1Cl (stereo partly drawn) [Compound 293, N-((1r,4r)-4-(3-chloro-4-cyanophenoxy)cyclohexyl)-5-((3aR,5R,6aS)-5-(4-(2-(2,6-dioxopiperidin-3-yl)-6-fluoro-1,3-dioxoisoindolin-5-yl)piperazin-1-yl)hexahydrocyclopenta[c]pyrrole-2(1H)-yl)pyrazine-2-carboxamide]	–
–	N#Cc1ccc(OC2CCC(NC(=O)c3ncc(N4C[C@H]5CC(N6CCN(c7cc8c(cc7F)C(=O)N(C7CCC(=O)NC7=O)C8=O)CC6)C[C@H]5C4)cn3)CC2)cc1Cl (stereo partly drawn) [Compound 294, N-((1r,4r)-4-(3-chloro-4-cyanophenoxy)cyclohexyl)-5-((3aR,5R,6aS)-5-(4-(2-(2,6-dioxopiperidin-3-yl)-6-fluoro-1,3-dioxoisoindolin-5-yl)piperazin-1-yl)hexahydrocyclopenta[c]pyrrole-2(1H)-yl)pyrimidine-2-carboxamide]	C (49%-25%)
–	N#Cc1ccc(O[C@H]2CC[C@@H](NC(=O)c3cnc(N4CCN([C@@H]5C[C@@H]6CN(c7cc8c(cc7F)C(=O)N(C7CCC(=O)NC7=O)C8=O)C[C@@H]6C5)CC4)cn3)CC2)cc1Cl (stereo partly drawn) [Compound 295, N-((1s,4s)-4-(3-chloro-4-cyanophenoxy)cyclohexyl)-5-(4-((3aR,5R,6aS)-2-(2-(2,6-dioxopiperidin-3-yl)-6-fluoro-1,3-dioxoisoindolin-5-yl)octahydrocyclopenta[c]pyrrol-5-yl)piperazin-1-yl)pyrazine-2-carboxamide]	C (49%-25%)
